Results on 18 molecules are retold here after patent US5521197A, “3-<1-alkylenearyl>-4-<1,2,3,6-tetrahydropyridinyl>-and 3-<1-alkylenearyl>-4-piperidinyl-1h-indoles: new 5-HT1F agonists” (Eli Lilly and Company, priority 1994, dated 1996).

Structures can show the parent of a compound that is named as a salt. Where two headings read alike, the source gives them in different places.

The term Ki denotes a dissociation constant, usually derived from enzyme kinetics or from competition with a known ligand.

In assay [1] the test system is protein extravasation in the dura. The experiment in a line: Inhibition of neuronal protein extravasation (trigeminal ganglion stimulation, Evans Blue in dura). Format: in vivo, Harlan Sprague-Dawley rats or guinea pigs.
Assay [2] has as its target T1, 5-HT1F receptor (Homo sapiens, UniProt P30939).
T1 sequence (P30939 1-366): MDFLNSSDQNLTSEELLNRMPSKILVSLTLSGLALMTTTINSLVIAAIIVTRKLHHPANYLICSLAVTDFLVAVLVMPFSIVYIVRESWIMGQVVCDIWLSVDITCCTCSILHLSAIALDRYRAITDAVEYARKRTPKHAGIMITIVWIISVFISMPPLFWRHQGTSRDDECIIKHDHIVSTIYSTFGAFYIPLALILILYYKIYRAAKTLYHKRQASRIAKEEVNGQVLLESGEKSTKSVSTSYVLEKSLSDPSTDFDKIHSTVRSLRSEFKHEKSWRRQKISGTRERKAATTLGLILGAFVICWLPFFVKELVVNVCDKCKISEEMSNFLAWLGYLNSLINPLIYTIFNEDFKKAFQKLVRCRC
Put plainly: Radioligand ([3H]5-HT) binding to the 5-HT1F receptor subtype. The arrangement: expressed in transfected cells; host or cells: Ltk- cells (membranes). The settings on record: for Ki: [3H]5-HT displacement, transfected Ltk- cell membranes, 37° C., read-out: 5-HT1F BINDING Ki; for inhibition at 1 µM: read-out: 5-HT1F BINDING, % displacement at 1000 nM. The procedure: The cells were washed twice with phosphate-buffered saline, scraped from the culture dishes into 5 mL of ice-cold phosphate-buffered saline, and centrifuged at 200×g for 5 minutes at 4° C. The pellet was resuspended in 2.5 mL of ice-cold Tris buffer (20 mM Tris HCl, pH=7.4 at 23° C., 5 mM EDTA) and homogenized with a Wheaton tissue grinder. The lysate was subsequently centrifuged at 200×g for 5 minutes at 4° C. to pellet large fragments which were discarded. The supernatant was collected and centrifuged at 40,000×g for 20 minutes at 4° C. The pellet resulting from this centrifugation was washed once in ice-cold Tris wash buffer and resuspended in a final buffer containing 50 mM Tris HCl and 0.5 mM EDTA, pH=7.4 at 23° C. Membrane preparations were kept on ice and utilized within two hours for the radioligand binding assays.
Saturation studies were conducted using [^3 H]5-HT at 12 different concentrations ranging from 0.5 nM to 100 nM. […] The binding profile of drugs in competition experiments was accomplished using 10-12 concentrations of compound. […] Nonspecific binding was defined in the presence of 10 μM 5-HT. Binding was initiated by the addition of 50 μL membrane homogenates (10-20 μg). The reaction was terminated by rapid filtration through presoaked (0.5% polyethyleneimine) filters using 48R Cell Brandel Harvester (Gaithersburg, Md.). Subsequently, filters were washed for 5 seconds with ice cold buffer (50 mM Tris HCl, pH=7.4 at 4° C.), dried and placed into vials containing 2.5 mL Readi-Safe (Beckman, Fullerton, Calif.) and radioactivity was measured using a Beckman LS 5000TA liquid scintillation counter. […] Binding data was analyzed by computer-assisted nonlinear regression analysis (Accufit and Accucomp, Lunden Software, Chagrin Falls, Ohio). […] All experiments were performed in triplicate. […]

Assay [3] relates to cephalic vascular smooth muscle. The settings on record: cited from earlier work.
Assay [4] has as its system migraine. The settings on record: in vivo; cited from earlier work.
Assay [5] concerns neurogenic inflammation. The settings on record: in vivo; cited from earlier work.
The mark [6] stands for this setting: iv, read-out: Inhibition of Protein Extravasation, i.v. ID50.

As for `CNS(=O)(=O)Cc1ccc2[nH]cc(CCN(C)C)c2c1` [Compound I, 3-[2-(dimethylamino)ethyl]-N-methyl-1H-indole-5-methanesulfonamide butane-1,4-dioate (1:1)], the ED50 in assay [1] (setting [6]) worked out at 2.6e-05 µmol/kg.
As to `Cn1cc(CCN2CCC(c3c[nH]c4ccc(F)cc34)CC2)cn1` [Compound II, 5-fluoro-3-<1-<2-<1-methyl-1H-pyrazol-4-yl>ethyl>-4-piperidinyl>-1H-indolehydrochloride], in assay [1] (iv; read-out: Inhibition of Protein Extravasation, i.v. ID50), the ED50 turned out to be 8.6e-07 µmol/kg.
Take `Oc1ccc2[nH]cc(C3CCNCC3)c2c1` [Compound III, 5-hydroxy-3-(4-piperidinyl)-1H-indole oxalate]: in assay [1] (setting [6]), the ED50 stood at 8.9e-06 µmol/kg.
With `CCN(CC)C1CCc2cccc(Cl)c2C1` (centres unmarked) [Compound IV, 8-chloro-2-diethylamino-1,2,3,4-tetrahydronaphthalene hydrochloride], the ED50 in assay [1] (setting [6]) was determined as 0.00012 µmol/kg.
Turning to `CN(C)C1CCc2[nH]c3ccc(O)cc3c2C1` (centres unmarked) [Compound V, 6-hydroxy-3-dimethylamino-1,2,3,4-tetrahydrocarbazole], in assay [1] (setting [6]), the ED50 came out at 8.7e-06 µmol/kg.
For the molecule `C1=C(c2c[nH]c3ccccc23)CCN(CCOc2ccccc2)C1` [Example 37, 3-<1-<2-phenoxyethyl>-4-<1,2,3,6-tetrahydropyridinyl>>-1H-indolehydrochloride], the Ki in assay [2] (Table I) was found to be 413 nM.
As for `C1=C(c2c[nH]c3ccccc23)CCN(CCCOc2ccccc2)C1` [Example 38, 3-<1-<3-phenoxypropyl>-4-<1,2,3,6-tetrahydropyridinyl>>-1H-indolehydrochloride], the Ki in assay [2] (Table I) stood at 136 nM.
With `C1=C(c2c[nH]c3ccccc23)CCN(CCSc2ccccc2)C1` [Example 39, 3-<1-<2-<phenylthio>ethyl>-4-<1,2,3,6-tetrahydropyridinyl>>-1H-indole], the inhibition at 1 µM in assay [2] came to 34%.
Regarding `c1ccc(OCCN2CCC(c3c[nH]c4ccccc34)CC2)cc1` [Example 40, 3-<1-<2-phenoxyethyl>-4-piperidinyl>-1H-indole hydrochloride], the Ki in assay [2] (Table I) is 191 nM.
`c1ccc(OCCCN2CCC(c3c[nH]c4ccccc34)CC2)cc1` [Example 41, 3-<1-<3-phenoxypropyl>-4-piperidinyl>-1H-indole hydrochloride]: the Ki in assay [2] (Table I) turned out to be 91.4 nM.
For the molecule `c1ccc(SCCN2CCC(c3c[nH]c4ccccc34)CC2)cc1` [Example 42, 3-<1-<2-<phenylthio>ethyl>-4-piperidinyl>-1H-indole], the inhibition constant Ki in assay [2] (Table I) was 342 nM.
With `C1=C(c2c[nH]c3ccccc23)CCN(CCCCc2ccccc2)C1` [Example 43, 3-<1-<4-phenylbutyl>-4-<1,2,3,6-tetrahydropyridinyl>>-1H-indolehydrochloride], the Ki in assay [2] (Table I) was determined as 547 nM.
As for `C1=C(c2c[nH]c3ccccc23)CCN(Cc2ccccc2)C1` [Example 44, 3-<1-benzyl-4-<1,2,3,6-tetrahydropyridinyl>>-1H-indole hydrochloride], in assay [2] (Table I), the inhibition constant (Ki) was determined as 396 nM.
Same read-out and setting: with `c1ccc(CN2CCC(c3c[nH]c4ccccc34)CC2)cc1` [Example 45, 3-<1-benzyl-4-piperidinyl>-1H -indole] the figure was 240 nM; with `c1ccc(CCCCN2CCC(c3c[nH]c4ccccc34)CC2)cc1` [Example 46, 3-<1-<4-phenylbutyl>-4-piperidinyl>-1H-indole hydrochloride], 20.4 nM.
In the case of `C1=C(c2c[nH]c3ccccc23)CCN(CCCc2ccccc2)C1` [Example 47, 3-<1-<3-phenylpropyl>-4-<1,2,3,6-tetrahydropyridinyl>>-1H-indolehydrochloride], in assay [2], the inhibition at 1 µM was found to be 62%.
Turning to `c1ccc(CCCN2CCC(c3c[nH]c4ccccc34)CC2)cc1` [Example 48, 3-<1-<3-phenylpropyl>-4-piperidinyl>-1H-indole hydrochloride], the inhibition at 1 µM in assay [2] (Table I, at 1000 nM) is 50%.
In the case of `CNS(=O)(=O)Cc1ccc2[nH]cc(CCN(C)C)c2c1` [sumatriptan], the “contraction of cephalic vascular smooth muscle” value in assay [3] is reported as “contract cephalic vascular smooth muscle”. Also, the “effectiveness in the treatment of migraine” value in assay [4] is “effective in the treatment of migraine”. Also, the “blockade of neurogenic inflammation” value in assay [5] is “blocked”.
